Source: publication PMC9099256, “Toward Novel [^18F]Fluorine-Labeled Radiotracers for the Imaging of α-Synuclein Fibrils” (Frontiers in Aging Neuroscience, 2022)
Where “and” joins values, the source holds several entries; their conditions need not be identical. Equal entries are not always repeated.

How the values were obtained:
Aβ1–42 fibrils = target: T1, Aβ1–42 fibrils (Homo sapiens, UniProt P05067); assay: Competition binding assay against [3H]DCVJ, Aβ1–42 fibrils; conditions: for Ki: vs [3H]DCVJ 10 nM, fibrils 125 nM
T1 construct: 1 mg of β-amyloid1−42 peptide was dissolved in 50 μL DMSO
Protocol: (§1) Fixed concentrations (125 nM) of Aβ1–42, tau aggregates, and [^3H]DCVJ (10 and 20 nM, respectively) were used with different concentrations of cold d2, d4, d6, and d8 from 1 to 1,000 nM. The experiment was performed in quadruplicates for each concentration. Further procedures followed the same already described in section “Competition Binding Assays for α-Syn Fibrils.”
(§2) The binding affinity of [^18F]d2, [^18F]d4, [^18F]d6, and [^18F]d8 to human recombinant α-syn, Aβ, and tau fibrils was assayed in a competition binding assay with non-radioactive ligands d2, d4, d6, and d8 against tritiated 9-(2,2-dicyanovinyl)julolidine (DCVJ) (Figure 3 and Supplementary Material). […] Although being a pan tracer makes DCVJ a less suitable tracer for the in vivo imaging of any of the protein aggregates, it makes it, however, a useful tool for evaluating the usefulness of other ligands as tracers for various proteinopathies in competitive binding experiments, as well as for scanning the fibril-binding sites in a set of in silico blind dockings.
1 mg of β-amyloid1−42 peptide was dissolved in 50 μL DMSO. 925 μL of Milli-Q water was added to the above. Then 25 μL of 1M Tris HCl, pH 7.4 was added to bring the final peptide concentration to 1 mg/mL. The dissolved peptide was then incubated for 30 h at 37°C with shaking at 900 rpm. To determine the concentration of fibrils, the fibril reaction mixer was centrifuged at 12000 g for 5 min and the fibril pellet was washed three times in 20 mM Tris-HCl pH 7.4 to separate fibrils from monomer. Supernatant from all centrifugation steps were combined and the concentration of monomer in the supernatant was determined in a BCA assay, alongside a BSA standard curve. The concentration of the fibrils formed was determined by subtracting the amount of β-amyloid1−42 monomer in the supernatant from initial amount used for fibrillation.

tau fibrils = tau fibrils (Homo sapiens, UniProt P10636); assay: Competition binding assay against [3H]DCVJ, tau fibrils; conditions: for Ki: vs [3H]DCVJ 20 nM, fibrils 125 nM
Protocol: as §1, §2
Recombinant tau monomer was dissolved at 300 µg/mL concentration in 20 mM Tris HCl pH 8.0, 100 mM NaCl, 25 μM low molecular weight heparin, and 0.5 mM DTT. The dissolved peptide was incubated at 37°C for 48 hours with shaking at 900 rpm. To determine the concentration of fibrils, the fibril reaction mixer was centrifuged at 12000 g for 5 min and the fibril pellet was washed 3 times in 20 mM Tris-HCl pH 7.4 to separate fibrils from monomer. Supernatants from all centrifugation steps were combined and the concentration of monomer in the supernatant was determined using BCA assay, alongside a BSA standard curve. The concentration of the fibrils formed was determined by subtracting the amount of tau monomer in the supernatant from initial amount used for fibrillation.

[1] = target: T2, human recombinant α-syn fibrils (Homo sapiens, UniProt P37840); assay: Competition binding assay against [3H]DCVJ, α-syn fibrils; conditions: for selectivity over Aβ and tau aggregates: abstract; for Ki: non-radioactive ligand vs [3H]DCVJ 10 nM, α-syn fibrils 125 nM, 2 h 37°C
T2 construct: made in house; host or cells: E. coli BL21(DE3), plasmid pET11-D
Protocol: The competitor reaction was diluted with 20 mM Tris-HCl, pH 7.4 to a final volume of 200 μL per well. After incubation for 2 h at 37°C, the binding mixtures were filtered through a Perkin Elmer GF/B glass filter via a TOMTEC cell harvester and immediately washed three times with 1 mL of deionized water. Filters containing the bound ligands were dried and mixed with 3 mL of Betaplate scint solution (PerkinElmer Life Sciences) and incubated for 2 h before counting in a Wallac 1450 MicroBeta TriLux Liquid Scintillation Counter (PerkinElmer Life Sciences). For the determination of the inhibition constants, data were analyzed using GraphPad Prism software (version 7.0) to obtain IC50 values by fitting the data to the equation Y = bottom + (top - bottom)/(1 + 10(x - log IC50). Ki values were calculated from IC50 values using the equation Ki = IC50/(1 + [radioligand]/Kd).
as §2
Purified recombinant α-syn monomer (10 mg/mL) was incubated in PBS, pH 7.4, at 37 °C by shaking at 900 rpm in an Eppendorf Thermomixer for up to 84 hours. To determine the concentration of fibrils, the fibril reaction mixer was centrifuged at 12000 g for 5 min and the fibril pellet was washed 3 times with 20 mM Tris-HCl pH 7.4 to separate fibrils from monomer. Supernatant from all the centrifugation steps were combined and the concentration of monomer in the supernatant was determined using SDS-PAGE. The concentration of the fibrils formed was determined by subtracting the mount of α-syn monomer in the supernatant from initial amount use for fibrillation process.

[2] = Biodistribution experiments; assay type: in vivo, healthy C57BL/6J mice; conditions: for brain uptake at 5 min p.i. / brain uptake at 60 min p.i.: i.v.
Protocol: The ethanol solutions containing the tracers [^18F]d2, [^18F]d4, [^18F]d6, and [^18F]d8 were diluted with DMSO, Tween-20, and saline added consecutively to achieve a final concentration of 2.4, 2.4, and 0.4% of ethanol, DMSO, and Tween-20, respectively. The pH was adjusted with 0.05 N aqueous sodium hydroxide solution. 1.5–2.5 MBq of [^18F]d2, [^18F]d4, [^18F]d6, and [^18F]d8 prepared in the above solvent mixture were administered to the mice via the caudal vein under isoflurane anesthesia. The mice were sacrificed at 5 and 60 min p.i. The following organs/tissues were extracted: blood, heart, lung, liver, stomach, pancreas, colon, small intestine, kidney, muscle, bone, tail, and the brain. The radioactivity in the pre-weighed tissue samples was determined using a γ-counter. Data are expressed as a percent of the injected dose per gram tissue (% ID/g; mean ± sd, n = 3).

[3] = In vitro plasma protein binding (ultrafiltration); assay type: in vitro ADME, human; conditions: for fp relative to benzodioxole counterpart: [18F]d8 vs [18F]d6, [18F]d4 vs [18F]d2; for fp (free plasma fraction): human plasma, ultrafiltration, n = 3
Protocol: To estimate the free fraction (fp) of the radioligands in the plasma, an ultrafiltration method was used. Approximately 1 MBq of [^18F]d2, [^18F]d4, [^18F]d6, and [^18F]d8 were added to 450 μL of Seronorm Human plasma (Invicon GmbH, Munich, Germany), and the mixture was incubated for 10 min. After incubation, 150 μL of plasma was transferred into 3 ultrafiltration tubes (Centrifree YM-30; cutoff 30,000 MW; Millipore) and centrifuged at 8,000 rpm for 10 min. Equal aliquots of the ultrafiltrate (Cfree), and of the plasma (Ctotal) were counted for their radioactivity with a γ-counter. The fp of the radioligands was calculated as fp = Cfree/Ctotal (n = 3).

[4] = Log D determination (octanol/PBS pH 7.4); assay type: physicochemical; conditions: for reduction of log D versus benzodioxole counterpart: [18F]d4 vs [18F]d2, [18F]d8 vs [18F]d6; for logD: octanol/PBS pH 7.4, n = 3
Protocol: To a solution of [^18F]d2, [^18F]d4, [^18F]d6, and [^18F]d8 (0.5–1.0 MBq) in 0.5 mL octanol, 0.5 mL PBS (pH 7.4) was added in a 1.5 mL Eppendorf vial. The vials were vigorously vortexed for 10 min. To achieve efficient phase separation, the vials were centrifuged for 10 min at 13,000 rpm in a Heraeus Biofuge 13 centrifuge. Aliquots (100 μL) of the aqueous and the octanol phase were collected carefully and the amount radioactivity in the respective samples was quantified using a γ-counter. The log octanol/PBS values were calculated from the means of n = 3 separate determinations.

[5] = Metabolite experiments (brain and plasma, 20 min p.i.); assay type: in vivo, healthy mice
Protocol: Tracers [^18F]d6 and [^18F]d8 were prepared as already described above in section “Biodistribution Experiments.” About 80–120 MBq of the tracers were injected via the caudal vein in the mice (n = 3 per tracer). At 20 min p.i., the animals were euthanized, and the needed tissues were extracted and placed on dry ice. To separate plasma from the blood cells, the blood samples were first centrifuged 13,000 rpm for 10 min, then acetonitrile acidified with 1% trifluoroacetic acid (TFA) (10 min, 4°C) was added to the centrifugate to precipitate the plasma proteins, followed by another centrifugation as already described, and ultrafiltration using ultrafiltration tubes (Centrifree YM-30; cutoff 30,000 MW; Millipore). A 10 μL of 1 M DMSO solution of the cold references was added to the centrifugate which was subsequently analyzed by RP-HPLC. The brain was frozen in liquid nitrogen and homogenized with a ball mill. A mixture of acetonitrile and DMSO (5:1) with 1% TFA containing the cold references of the tracers was added to the homogenate and mixed. The suspension was centrifuged. The supernatant was then filtered using ultrafiltration tubes as already described, the resulting filtrate was subsequently analyzed by RP-HPLC.

[6] = In vivo PET-MRI dynamic scan with biodistribution; design: species or system healthy C57BL/6J mice; conditions: healthy mice, i.v., biodistribution after PET dynamic scan
Protocol: For PET imaging [^18F]d6 and [^18F]d8 were prepared as described in section “Biodistribution Experiments” and ∼11 MBq was injected via the caudal vein in the mice (n = 3 for each tracer). PET was recorded on nanoScan PET/MRI (Mediso Medical Imaging System) under isoflurane anesthesia. PET was continuously recorded in list mode for 120 min and consisted of 36 frames (1 × 60 s; 30 × 10 s; 1 × 600 s; 1 × 900 s; and 3 × 1800 s) while anesthesia was maintained. Data were reconstructed using Nucline nanoScan 3.00.021.0000 software, employing a three-dimensional ordered subset expectation maximum (OSEM3D) algorithm without a scatter and attenuation correction. Tissue time–activity curves (TACs) were obtained by projecting the defined ROI onto all frames of the dynamic PET scans. At 2 h after the PET dynamic scan, the mice were promptly euthanized, the rest of the protocol followed as already described in section “Biodistribution Experiments.”

Sequence of tau fibrils (P10636 2-758): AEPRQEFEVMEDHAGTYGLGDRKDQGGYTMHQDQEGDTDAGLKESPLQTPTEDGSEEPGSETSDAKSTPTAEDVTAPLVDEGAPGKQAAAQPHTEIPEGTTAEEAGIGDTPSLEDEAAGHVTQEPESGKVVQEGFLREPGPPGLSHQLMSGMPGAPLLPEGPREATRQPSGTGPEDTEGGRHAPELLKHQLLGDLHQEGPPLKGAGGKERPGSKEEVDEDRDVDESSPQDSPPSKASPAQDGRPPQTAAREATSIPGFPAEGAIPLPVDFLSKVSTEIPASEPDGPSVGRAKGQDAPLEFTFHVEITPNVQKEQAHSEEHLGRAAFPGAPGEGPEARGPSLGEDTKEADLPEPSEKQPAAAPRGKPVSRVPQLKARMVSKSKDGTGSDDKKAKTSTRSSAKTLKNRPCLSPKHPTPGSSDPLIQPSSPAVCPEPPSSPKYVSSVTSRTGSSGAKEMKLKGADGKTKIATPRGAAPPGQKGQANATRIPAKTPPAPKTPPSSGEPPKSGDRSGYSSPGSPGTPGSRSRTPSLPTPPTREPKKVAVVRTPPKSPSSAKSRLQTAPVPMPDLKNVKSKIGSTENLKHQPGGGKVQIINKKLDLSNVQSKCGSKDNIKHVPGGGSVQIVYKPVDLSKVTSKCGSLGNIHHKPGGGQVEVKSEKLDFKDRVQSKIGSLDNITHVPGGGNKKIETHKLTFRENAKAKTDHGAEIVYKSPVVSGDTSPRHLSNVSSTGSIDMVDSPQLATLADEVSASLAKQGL
T1 sequence (P05067 672-713): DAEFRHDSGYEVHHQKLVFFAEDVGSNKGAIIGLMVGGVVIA

N#CC(C#N)=Cc1cc2c3c(c1)CCCN3CCC2 [DCVJ, 9-(2,2-dicyanovinyl)julolidine, reference compound]
Kd (Aβ1–42 fibrils; radioligand/pan-amyloid ligand, read-out: Kd for Aβ): 8.9 nM
Kd (tau fibrils; radioligand/pan-amyloid ligand): 15.6 nM
Kd ([1]; radioligand/pan-amyloid ligand): 4.42 nM

COc1ccc(-c2csc(-c3nc(-c4cnc5c(c4)OCO5)cs3)n2)cc1F [d4, 6-(4'-(3-fluoro-4-methoxyphenyl)-[2,2'-bithiazol]-4-yl)-[1,3]dioxolo[4,5-b]pyridine]
Ki (Aβ1–42 fibrils): 275 nM
Ki (tau fibrils): > 1000 nM
selectivity over Aβ and tau aggregates [1]: > 200 fold
Ki [1]: 0.66 nM

COc1ccc(-c2csc(-c3nc(-c4cnc5c(c4)OCO5)cs3)n2)cc1[18F] [[^18F]d4, 6-(4′-(3-[^18F]fluoro-4-methoxyphenyl)-[2,2′-bithiazol]-4-yl)-[1,3]dioxolo[4,5-b]pyridine]
brain uptake at 5 min p.i. ([2]; healthy mice, 5 min p.i.): 4.63 %ID/g
brain uptake at 60 min p.i. ([2]; healthy mice): 3.86 %ID/g
fp relative to benzodioxole counterpart [3]: ~2 times
fp (free plasma fraction) [3]: 0.45 ± 0.03%
reduction of log D versus benzodioxole counterpart [4]: approximately 3.2%
logD [4]: 3 ± 0.04

COc1ccc(-c2csc(-c3nc(-c4ccc5c(c4)OCO5)cs3)n2)cc1[18F] [[^18F]d2, 4-(benzo[d][1,3]dioxol-5-yl)-4′-(3-[^18F]fluoro-4-methoxyphenyl)-2,2′-bithiazole]
brain uptake at 5 min p.i. ([2]; healthy mice, 5 min p.i.): 1.58 %ID/g
brain uptake at 60 min p.i. ([2]; healthy mice): 1.93 %ID/g
fp (free plasma fraction) [3]: 0.25 ± 0.01%
logD [4]: 3.1 ± 0.09

COc1ccc(-c2csc(-c3nc(-c4ccc5c(c4)OCO5)cs3)n2)cc1F [d2, 4-(benzo[d][1,3]dioxol-5-yl)-4'-(3-fluoro-4-methoxyphenyl)-2,2'-bithiazole]
Ki (Aβ1–42 fibrils): 242 nM
Ki (tau fibrils): > 1000 nM
selectivity over Aβ [1]: about 200 fold
selectivity over tau [1]: ~1,000 fold
selectivity over Aβ and tau aggregates [1]: > 200 fold
Ki [1]: 1.22 nM

Fc1ccc(-c2csc(-c3nc(-c4cnc5c(c4)OCO5)cs3)n2)cn1 [d8, 6-(4'-(6-fluoropyridin-3-yl)-[2,2'-bithiazol]-4-yl)-[1,3]dioxolo[4,5-b]pyridine]
Ki (Aβ1–42 fibrils): 386 nM
Ki (tau fibrils): > 1000 nM
selectivity over Aβ and tau aggregates [1]: > 200 fold
Ki [1]: 0.1 nM

[18F]c1ccc(-c2csc(-c3nc(-c4cnc5c(c4)OCO5)cs3)n2)cn1 [[^18F]d8, 6-(4′-(6-[^18F]fluoropyridin-3-yl)-[2,2′-bithiazol]-4-yl)-[1,3]dioxolo[4,5-b]pyridine]
brain radiometabolites ([5]; healthy mice): no brain radiometabolites
parent tracer in brain content ([5]; mice, brain homogenate): > 99%
parent tracer remaining in the plasma (in vivo stability) ([5]; mice, plasma): > 60%
reduction in brain concentration at 5 min p.i. versus [18F]d6 ([2]; healthy mice, 5 min p.i.): 11.4%
brain uptake at 5 min p.i. ([2]; healthy mice, 5 min p.i.): 5.13 %ID/g
brain uptake at 60 min p.i. ([2]; healthy mice): ~1 %ID/g and 1.07 %ID/g
brain uptake in mice ([2]; mice, time not stated): > 4 % ID/g
fp relative to benzodioxole counterpart [3]: about 6 times
fp (free plasma fraction) [3]: 0.85 ± 0.02%
brain uptake at 120 min p.i. [6]: < 1 %ID/g and 0.58 %ID/g
reduction of log D versus benzodioxole counterpart [4]: ~7.1%
logD [4]: 2.6 ± 0.09

[18F]c1ccc(-c2csc(-c3nc(-c4ccc5c(c4)OCO5)cs3)n2)cn1 [[^18F]d6, 4-(benzo [d][1,3]dioxol-5-yl)-4′-(6-[^18F]fluoropyridin-3-yl)-2,2′-bithiazole]
brain uptake at 5 min p.i. ([2]; healthy mice, 5 min p.i.): 5.79 %ID/g
brain uptake at 60 min p.i. ([2]; healthy mice): 1.75 %ID/g
fp (free plasma fraction) [3]: 0.14 ± 0.02%
brain uptake at 120 min p.i. [6]: 1.04 %ID/g
logD [4]: 2.8 ± 0.09

Fc1ccc(-c2csc(-c3nc(-c4ccc5c(c4)OCO5)cs3)n2)cn1 [d6, 4-(benzo[d][1,3]dioxol-5-yl)-4'-(6-fluoropyridin-3-yl)-2,2'-bithiazole]
Ki (Aβ1–42 fibrils): 237 nM
Ki (tau fibrils): 966 nM
selectivity over Aβ and tau aggregates [1]: > 200 fold
Ki [1]: 1.21 nM
